Numbered stars: 1 amine (or outer) side, 2 acyl side, 3 side chain; on linkers, the order of the positions; unused ones are H or OH. Square brackets hold non-standard residues; d marks the D form. Peptide text beside a SMILES is read from it. * marks the point of attachment. DOTA = O=C(O)CN1CCN(CC(=O)O)CCN(CC(=O)*)CCN(CC(=O)O)CC1; Leuψ(CH2N)ThzNH2 = CC(C)C[C@@H](CN1CSC[C@H]1C(N)=O)N*; X1 = O=C(CN1CCC(N[*:1])CC1)[*:2]
Key:
[1] = Ex vivo biodistribution in PC-3 tumor-bearing mice; conditions: male, NRG, mouse, iv, total radioactivity, 1 h post-injection, mice bearing PC-3 tumor xenografts, n = 4
Experimental: (§1) All imaging and biodistribution studies were performed using male NOD.Cg-Rag1^tm1MoM II2rg^tm1WI/SzJ (NRG) mice and conducted according to the guidelines established by the Canadian Council on Animal Care and approved by Animal Ethics Committee of the University of British Columbia. For tumor inoculations, mice were anesthetized by inhalation with 2% isoflurane in oxygen and implanted subcutaneously with 5×10^6 PC-3 cells below the left shoulder. Imaging and biodistribution studies were performed only after tumors grew to 5-8 mm in diameter.
(§2) For PET/CT imaging studies, ˜3-4 MBq of the ^68Ga-labeled tracer was injected through the tail vein. Mice were allowed to recover and roam freely in the cages after injecting the tracer. At 45 min post-injection (p.i.), mice were sedated again and positioned on the scanner. First, a 10 min CT scan was conducted for localization and attenuation correction for reconstruction of PET images, before a 10 min PET image was acquired. Heating pads were used during the entire procedure to keep the mice warm. For ex vivo biodistribution studies, mice were injected with ˜1.5-3 MBq of the ^68Ga-labeled tracer. At 1 h p.i., mice were euthanized, blood was drawn from heart, and organs/tissues of interest were collected, rinsed with PBS, blotted dry, weighed, and counted using an automated gamma counter. The uptake in each organ/tissue was normalized to the injected dose and expressed as the percentage of the injected dose per gram of tissue (% ID/g).
(§3) All imaging and biodistribution studies were performed using male NOD.Cg-Rag1tm1Mom II2rgtm1WjI/SzJ (NRG) mice and conducted according to the guidelines established by the Canadian Council on Animal Care and approved by Animal Ethics Committee of the University of British Columbia. For tumor inoculations, mice were anesthetized by inhalation with 2% isoflurane in oxygen and implanted subcutaneously with 5×10^6 PC-3 cells below the left shoulder. Imaging and biodistribution studies were performed only after tumors grew to 5-8 mm in diameter.
(§4) For PET/CT imaging studies, ˜5 MBq of the ^68Ga-labeled tracer was injected through the tail vein. Mice were allowed to recover and roam freely in the cages after injecting the tracer. At 45 min post-injection (p.i.), mice were sedated again and positioned on the scanner. First, a 10 min CT scan was conducted for localization and attenuation correction for reconstruction of PET images, before a 10 min PET image was acquired. Heating pads were used during the entire procedure to keep the mice warm. For ex vivo biodistribution studies, mice were injected with ˜3 MBq of the 68Ga-labeled tracer. At 1 h p.i., mice were euthanized, blood was drawn from heart, and organs/tissues of interest were collected, rinsed with PBS, blotted dry, weighed, and counted using an automated gamma counter.

in vivo = conditions: male, NRG, mouse, iv, total radioactivity
Experimental: as §1, §2, §3, §4

[2] = PC-3 tumor, Biodistribution PC3 tumor Mean
[3] = adrenal, Biodistribution Adrenal Mean
[4] = bone, Biodistribution Bone Mean
[5] = brain, Biodistribution Brain Mean
[6] = heart, Biodistribution Heart Mean
[7] = kidneys, Biodistribution Kidneys Mean
[8] = liver, Biodistribution Liver Mean
[9] = lungs, Biodistribution Lungs Mean
[10] = muscle, Biodistribution Muscle Mean
[11] = pancreas, Biodistribution Pancreas Mean
[12] = seminal, Biodistribution Seminal Mean
[13] = small intestine, Biodistribution Small Intestine Mean
[14] = spleen, Biodistribution Spleen Mean
[15] = stomach, Biodistribution Stomach Mean
[16] = testes, Biodistribution Testes Mean
[17] = whole blood, Biodistribution Blood Mean
[18] = large intestine, Biodistribution Large Intestine Mean
[19] = Biodistribution Large Intestine Mean
[20] = Biodistribution Small Intestine Mean

## CC(C)C[C@H](NC(=O)[C@H](Cc1c[nH]cn1)NC(=O)CNC(=O)[C@@H](NC(=O)[C@H](C)NC(=O)[C@H](Cc1c[nH]c2ccccc12)NC(=O)[C@H](CCC(N)=O)NC(=O)[C@@H](Cc1ccccc1)NC(=O)CN1CCC(NC(=O)CN2CCN(CC(=O)O)CCN(CC(=O)O)CCN(CC(=O)O)CC2)CC1)C(C)C)C(=O)N1CSC[C@H]1C(N)=O [^68Ga-LW01025, metal not drawn]
[1]; [2]
  tissue uptake at 1 h: 6.2 %ID/g
[1]; [3]
  tissue uptake at 1 h: 0.54 %ID/g
[1]; [4]
  tissue uptake at 1 h: 0.24 %ID/g
[1]; [5]
  tissue uptake at 1 h: 0.03 %ID/g
[1]; fat, Biodistribution Fat Mean
  tissue uptake at 1 h: 0.09 %ID/g
[1]; [6]
  tissue uptake at 1 h: 0.13 %ID/g
[1]; [7]
  tissue uptake at 1 h: 2.37 %ID/g
[1]; [8]
  tissue uptake at 1 h: 0.29 %ID/g
[1]; [9]
  tissue uptake at 1 h: 0.34 %ID/g
[1]; [10]
  tissue uptake at 1 h: 0.13 %ID/g
[1]; [11]
  tissue uptake at 1 h: 1.28 %ID/g
[1]; [12]
  tissue uptake at 1 h: 0.06 %ID/g
[1]; [13]
  tissue uptake at 1 h: 0.56 %ID/g
[1]; [14]
  tissue uptake at 1 h: 0.23 %ID/g
[1]; [15]
  tissue uptake at 1 h: 0.54 %ID/g
[1]; [16]
  tissue uptake at 1 h: 0.16 %ID/g
[1]; [17]
  tissue uptake at 1 h: 0.34 %ID/g

## CC(C)C[C@H](NC(=O)[C@H](Cc1c[nH]cn1)NC(=O)CNC(=O)[C@@H](NC(=O)[C@H](C)NC(=O)[C@H](Cc1c[nH]c2ccccc12)NC(=O)[C@H](CCC(N)=O)NC(=O)[C@@H](Cc1ccc2ccccc2c1)NC(=O)CN1CCC(NC(=O)CN2CCN(CC(=O)O)CCN(CC(=O)O)CCN(CC(=O)O)CC2)CC1)C(C)C)C(=O)N1CSC[C@H]1C(N)=O [^68Ga-LW01029, metal not drawn]
[1]; [2]
  tissue uptake at 1 h: 4.7 %ID/g
[1]; [3]
  tissue uptake at 1 h: 0.82 %ID/g
[1]; [4]
  tissue uptake at 1 h: 0.19 %ID/g
[1]; [5]
  tissue uptake at 1 h: 0.04 %ID/g
[1]; fat, Biodistribution Fat Mean
  tissue uptake at 1 h: 0.18 %ID/g
[1]; [6]
  tissue uptake at 1 h: 0.36 %ID/g
[1]; [7]
  tissue uptake at 1 h: 4.73 %ID/g
[1]; [18]
  tissue uptake at 1 h: 0.96 %ID/g
[1]; [8]
  tissue uptake at 1 h: 0.63 %ID/g
[1]; [9]
  tissue uptake at 1 h: 1.82 %ID/g
[1]; [10]
  tissue uptake at 1 h: 0.23 %ID/g
[1]; [11]
  tissue uptake at 1 h: 2.56 %ID/g
[1]; [12]
  tissue uptake at 1 h: 0.13 %ID/g
[1]; [13]
  tissue uptake at 1 h: 1.05 %ID/g
[1]; [14]
  tissue uptake at 1 h: 0.45 %ID/g
[1]; [15]
  tissue uptake at 1 h: 0.77 %ID/g
[1]; [16]
  tissue uptake at 1 h: 0.33 %ID/g
[1]; [17]
  tissue uptake at 1 h: 1.08 %ID/g

## CC(C)C[C@@H](CN1CSC[C@H]1C(N)=O)NC(=O)[C@H](Cc1c[nH]cn1)NC(=O)CNC(=O)[C@@H](NC(=O)[C@H](C)NC(=O)[C@H](Cc1c[nH]c2ccccc12)NC(=O)[C@H](CCC(N)=O)NC(=O)[C@@H](Cc1ccc2ccccc2c1)NC(=O)CN1CCC(NC(=O)CN2CCN(CC(=O)O)CCN(CC(=O)O)CCN(CC(=O)O)CC2)CC1)C(C)C [^68Ga-LW01059, metal not drawn]
[1]; [2]
  tissue uptake at 1 h: 6.84 %ID/g
[1]; [3]
  tissue uptake at 1 h: 1.81 %ID/g
[1]; [4]
  tissue uptake at 1 h: 0.42 %ID/g
[1]; [5]
  tissue uptake at 1 h: 0.06 %ID/g
[1]; fat, Biodistribution Fat Mean
  tissue uptake at 1 h: 0.19 %ID/g
[1]; [6]
  tissue uptake at 1 h: 0.66 %ID/g
[1]; [7]
  tissue uptake at 1 h: 4.49 %ID/g
[1]; [18]
  tissue uptake at 1 h: 0.66 %ID/g
[1]; [8]
  tissue uptake at 1 h: 21.5 %ID/g
[1]; [9]
  tissue uptake at 1 h: 3.05 %ID/g
[1]; [10]
  tissue uptake at 1 h: 0.28 %ID/g
[1]; [11]
  tissue uptake at 1 h: 7.26 %ID/g
[1]; [13]
  tissue uptake at 1 h: 2.15 %ID/g
[1]; [14]
  tissue uptake at 1 h: 0.68 %ID/g
[1]; [15]
  tissue uptake at 1 h: 1.1 %ID/g
[1]; [16]
  tissue uptake at 1 h: 0.33 %ID/g
[1]; [17]
  tissue uptake at 1 h: 2.16 %ID/g

## CC(C)C[C@@H](CN1CSC[C@H]1C(N)=O)NC(=O)[C@H](Cc1c[nH]cn1)NC(=O)CNC(=O)[C@@H](NC(=O)[C@H](C)NC(=O)[C@H](Cc1c[nH]c2ccccc12)NC(=O)[C@H](Cc1c[nH]cn1)NC(=O)[C@@H](Cc1ccccc1)NC(=O)CN1CCC(NC(=O)CN2CCN(CC(=O)O)CCN(CC(=O)O)CCN(CC(=O)O)CC2)CC1)C(C)C [^68Ga-LW01102, metal not drawn] ({DOTA}-[X1][dF]HWAVGH-{Leuψ(CH2N)ThzNH2})
[1]; [2]
  tissue uptake at 1 h: 7.46 %ID/g
[1]; [3]
  tissue uptake at 1 h: 1.36 %ID/g
[1]; [4]
  tissue uptake at 1 h: 0.13 %ID/g
[1]; [5]
  tissue uptake at 1 h: 0.04 %ID/g
[1]; fat, Biodistribution Fat Mean
  tissue uptake at 1 h: 0.09 %ID/g
[1]; [6]
  tissue uptake at 1 h: 0.36 %ID/g
[1]; [7]
  tissue uptake at 1 h: 6.3 %ID/g
[1]; [18]
  tissue uptake at 1 h: 1.25 %ID/g
[1]; [8]
  tissue uptake at 1 h: 3.22 %ID/g
[1]; [9]
  tissue uptake at 1 h: 1.55 %ID/g
[1]; [10]
  tissue uptake at 1 h: 0.18 %ID/g
[1]; [11]
  tissue uptake at 1 h: 13.1 %ID/g
[1]; [12]
  tissue uptake at 1 h: 0.23 %ID/g
[1]; [13]
  tissue uptake at 1 h: 2.85 %ID/g
[1]; [14]
  tissue uptake at 1 h: 0.52 %ID/g
[1]; [15]
  tissue uptake at 1 h: 1.23 %ID/g
[1]; [16]
  tissue uptake at 1 h: 0.33 %ID/g
[1]; [17]
  tissue uptake at 1 h: 1.13 %ID/g

## CC(C)C[C@H](NC(=O)[C@H](Cc1c[nH]cn1)N(C)C(=O)CNC(=O)[C@@H](NC(=O)[C@H](C)NC(=O)[C@H](Cc1c[nH]c2ccccc12)NC(=O)[C@H](CCC(N)=O)NC(=O)[C@@H](Cc1ccccc1)NC(=O)CN1CCC(NC(=O)CN2CCN(CC(=O)O)CCN(CC(=O)O)CCN(CC(=O)O)CC2)CC1)C(C)C)C(=O)N1CSC[C@H]1C(N)=O [^68Ga-LW01107, metal not drawn]
In vivo; Biodistribution Blood Mean
  tissue uptake at 1 h: 0.3 %ID/g
In vivo; Biodistribution Bone Mean
  tissue uptake at 1 h: 0.06 %ID/g
In vivo; Biodistribution Brain Mean
  tissue uptake at 1 h: 0.01 %ID/g
In vivo; Biodistribution Fat Mean
  tissue uptake at 1 h: 0.05 %ID/g
In vivo; Biodistribution Heart Mean
  tissue uptake at 1 h: 0.11 %ID/g
In vivo; Biodistribution Kidneys Mean
  tissue uptake at 1 h: 1.88 %ID/g
In vivo; [19]
  tissue uptake at 1 h: 0.18 %ID/g
In vivo; Biodistribution Liver Mean
  tissue uptake at 1 h: 0.32 %ID/g
In vivo; Biodistribution Lungs Mean
  tissue uptake at 1 h: 0.28 %ID/g
In vivo; Biodistribution PC3 tumor Mean
  tissue uptake at 1 h: 7.05 %ID/g
In vivo; Biodistribution Pancreas Mean
  tissue uptake at 1 h: 0.39 %ID/g
In vivo; [20]
  tissue uptake at 1 h: 0.31 %ID/g
In vivo; Biodistribution Spleen Mean
  tissue uptake at 1 h: 0.13 %ID/g
In vivo; Biodistribution Stomach Mean
  tissue uptake at 1 h: 0.07 %ID/g
In vivo; Biodistribution Testes Mean
  tissue uptake at 1 h: 0.1 %ID/g
[1]; [3]
  tissue uptake at 1 h: 0.32 %ID/g
[1]; [10]
  tissue uptake at 1 h: 0.07 %ID/g
[1]; [12]
  tissue uptake at 1 h: 0.04 %ID/g

## CC(C)C[C@H](NC(=O)[C@H](Cc1c[nH]cn1)NC(=O)CNC(=O)[C@@H](NC(=O)[C@H](C)NC(=O)[C@H](Cc1c[nH]c2ccccc12)NC(=O)[C@H](CCC(N)=O)NC(=O)[C@@H](Cc1ccccc1)NC(=O)CN1CCC(NC(=O)CN2CCN(CC(=O)O)CCN(CC(=O)O)CCN(CC(=O)O)CC2)CC1)C(C)(C)C)C(=O)N1CSC[C@H]1C(N)=O [^68Ga-LW01108, metal not drawn]
In vivo; Biodistribution Adrenal Mean
  tissue uptake at 1 h: 1.51 %ID/g
In vivo; Biodistribution Blood Mean
  tissue uptake at 1 h: 0.59 %ID/g
In vivo; Biodistribution Bone Mean
  tissue uptake at 1 h: 0.15 %ID/g
In vivo; Biodistribution Brain Mean
  tissue uptake at 1 h: 0.02 %ID/g
In vivo; Biodistribution Fat Mean
  tissue uptake at 1 h: 0.06 %ID/g
In vivo; Biodistribution Heart Mean
  tissue uptake at 1 h: 0.18 %ID/g
In vivo; Biodistribution Kidneys Mean
  tissue uptake at 1 h: 2.47 %ID/g
In vivo; [19]
  tissue uptake at 1 h: 1.31 %ID/g
In vivo; Biodistribution Liver Mean
  tissue uptake at 1 h: 0.35 %ID/g
In vivo; Biodistribution Lungs Mean
  tissue uptake at 1 h: 0.49 %ID/g
In vivo; Biodistribution Muscle Mean
  tissue uptake at 1 h: 0.17 %ID/g
In vivo; Biodistribution PC3 tumor Mean
  tissue uptake at 1 h: 5.9 %ID/g
In vivo; Biodistribution Pancreas Mean
  tissue uptake at 1 h: 9.32 %ID/g
In vivo; [20]
  tissue uptake at 1 h: 2.29 %ID/g
In vivo; Biodistribution Spleen Mean
  tissue uptake at 1 h: 0.4 %ID/g
In vivo; Biodistribution Stomach Mean
  tissue uptake at 1 h: 0.89 %ID/g
In vivo; Biodistribution Testes Mean
  tissue uptake at 1 h: 0.16 %ID/g
[1]; [12]
  tissue uptake at 1 h: 0.11 %ID/g

## CC(C)C[C@@H](CN1CCC[C@H]1C(N)=O)NC(=O)[C@H](Cc1c[nH]cn1)NC(=O)CN(C)C(=O)[C@@H](NC(=O)[C@H](C)NC(=O)[C@H](Cc1c[nH]c2ccccc12)NC(=O)[C@H](CCC(N)=O)NC(=O)[C@@H](Cc1ccccc1)NC(=O)CN1CCC(NC(=O)CN2CCN(CC(=O)O)CCN(CC(=O)O)CCN(CC(=O)O)CC2)CC1)C(C)C [^68Ga-LW02045, metal not drawn]
[1]; [2]
  tissue uptake at 1 h: 12.4 %ID/g
[1]; [3]
  tissue uptake at 1 h: 0.44 %ID/g
[1]; [4]
  tissue uptake at 1 h: 0.07 %ID/g
[1]; [5]
  tissue uptake at 1 h: 0.02 %ID/g
[1]; fat, Biodistribution Fat Mean
  tissue uptake at 1 h: 0.03 %ID/g
[1]; [6]
  tissue uptake at 1 h: 0.14 %ID/g
[1]; [7]
  tissue uptake at 1 h: 2.54 %ID/g
[1]; [18]
  tissue uptake at 1 h: 0.34 %ID/g
[1]; [8]
  tissue uptake at 1 h: 0.37 %ID/g
[1]; [9]
  tissue uptake at 1 h: 1.08 %ID/g
[1]; [10]
  tissue uptake at 1 h: 0.1 %ID/g
[1]; [11]
  tissue uptake at 1 h: 1.37 %ID/g
[1]; [12]
  tissue uptake at 1 h: 3.8 %ID/g
[1]; [13]
  tissue uptake at 1 h: 0.48 %ID/g
[1]; [14]
  tissue uptake at 1 h: 0.18 %ID/g
[1]; [15]
  tissue uptake at 1 h: 0.35 %ID/g
[1]; [16]
  tissue uptake at 1 h: 0.12 %ID/g
[1]; [17]
  tissue uptake at 1 h: 0.43 %ID/g

From US12246076B2, “Radiolabeled compounds for in vivo imaging of gastrin-releasing peptide receptor (GRPR) and treatment of GRPR-related disorders” (PROVINCIAL HEALTH SERVICES AUTHORITY, priority 2022, dated 2025)
